Data from US6646006B2, “Enhancement of vascular function by modulation of endogenous nitric oxide production or activity” (The Board of Trustees of the Leland Stanford Junior …, priority 1993, dated 2003).
“Also recorded” adds a separate entry of the source.

Key:
[1] = tested on: platelets; experiment: ADP-initiated platelet aggregation (nephelometry), platelets from treated rabbits; type: in vivo, rabbit
Method: The effect of L-arginine supplementation on platelet reactivity in rabbits that had normal chow (Control; n=6), a 1% cholesterol diet (Chol; n=5), or a 1% cholesterol diet supplemented with oral arginine (Arg; n=6), as detailed above, was examined. Arterial blood obtained after central ear artery cannulation was anticoagulated with 13 mM sodium citrate. Platelet-rich suspension was prepared by washing platelets in calcium-free Krebs-Henseleit solution and resuspending them in Tyrode's solution with albumin. Aggregation was initiated by addition of adenosine diphosphate and monitored by standard nephelometric techniques. In platelets derived from Chol animals, aggregation was not different in rate or maximum extent in comparison to platelets from Control animals (A, in FIG. 2). By contrast, aggregation of platelets from Arg animals was reduced by 50% (B, in FIG. 2).
Therefore, the anti-platelet effect of chronic oral arginine administration can be credited to an increased synthesis of endogenous NO. Furthermore, NO synthesis may be induced in both the platelets and the endothelium.

[2] = tested on: coronary arteries; experiment: Coronary response to intracoronary acetylcholine after intravenous L-arginine in cardiac transplant recipients; type: in vivo, human
Method: Cardiac transplant recipients scheduled for elective annual coronary angiography at Stanford University hospital were screened for possible participation in the study. The study protocol was approved by the Stanford University Committee on Human Subjects in Medical Research. All patients gave written informed consent. Eighteen patients who had cardiac transplantation 1 to 13 years previously were studied.
Vasoactive medications were discontinued at least 12 hours before the study. […] An infusion catheter was then advanced over a Doppler flow velocity guide wire into a nonbranching segment of the coronary artery for infusion of acetylcholine (which stimulates the endothelium to release NO). After baseline angiography was performed, increasing concentrations of acetylcholine were serially infused over 3 minutes. Infusion of acetylcholine continued until the maximum dose (10^−4 mol/L) was reached or until total coronary occlusion occurred. Then an intravenous infusion of L-arginine (30 g over 15 minutes) was performed. Thereafter, the intracoronary infusion of acetylcholine was repeated. Coronary angiography and Doppler flow velocity recording was performed at the end of the L-arginine infusion and after the infusion of each concentration of acetylcholine.

[3] = tested on: forearm resistance vessels; experiment: Forearm blood flow response to methacholine (plethysmography) after intravenous L-arginine; type: in vivo, human
Excerpt: The control subject population in this study included 11 normal volunteers comprising (10 males and 1 female). Their ages ranged from 31 to 49 and averaged 39±2 yr. There were 14 patients with hypercholesterolemia. Hypercholesterolemia was defined as a serum LDL cholesterol level greater than the 75th percentile adjusted for age and sex. These individuals included 11 males and 3 females whose ages ranged from 22 to 48 and averaged 38±2 years.
Under local anesthesia and sterile conditions, a polyethylene catheter was inserted into a brachial artery of each subject for determination of blood pressure and for infusion of drugs. A separate polyethylene catheter was inserted into the antecubital vein for infusion of L-arginine. Bilateral forearm blood flow was determined by venous occlusion strain gauge plethysmography, using calibrated mercury-in-silastic strain gauges, and expressed as ml/100 ml tissue per min.
To assess NO-dependent vasodilation, methacholine chloride (which induces the endothelium to release NO) was administered via the brachial artery. Forearm blood flow was measured during infusion of methacholine chloride at concentrations of 0.3, 3, and 10 μg/min each for 3 min.
After completion of the methacholine chloride infusions, all normal subjects and 10 individuals with hypercholesterolemia were given L-arginine intravenously over 30 minutes and then the methacholine infusions were repeated. D-arginine, the enantiomer of L-arginine, is not a precursor of NO. Thus, to ensure that any observed effects of L-arginine were due to its contribution to the synthesis of NO and not just secondary to its physiochemical properties, five individuals with hypercholesterolemia received D-arginine intravenously.

[4] = tested on: hypercholesterolemic rabbits; experiment: Regression of pre-existing atherosclerosis in hypercholesterolemic rabbits; type: in vivo, rabbit; conditions: for Lesion surface area of thoracic aortae: all arginine treated animals weeks 14-23 vs vehicle
Excerpt: This is clinically important if arginine is to be useful in the treatment of pre-existing atherosclerosis in humans. Accordingly, New Zealand white rabbits (n=85) received normal chow or 0.5% cholesterol chow for 10 weeks. Subsequently, half of the hypercholesterolemic rabbits were given 2.25% (W/V) L-arginine in their drinking water. Thoracic aortae were harvested at weeks 10, 14, 18, or 23. Rings of aorta were used to assess NO-dependent vasodilation to acetylcholine (ACh). Maximal relaxation to ACh in the hypercholesterolemic rabbits receiving vehicle (CHOL) became progressively attenuated from 53.4% (at week 10) to 17.4% (by week 23). […] By contrast, hypercholesterolemic animals receiving arginine (ARG) manifested improved endothelium-dependent relaxation associated with a reduction of plaque area at 14 and 18 weeks.

[5] = tested on: monocytes; experiment: Functional binding assay: rabbit blood mononuclear cells to bEnd3 endothelial cells; type: in vivo; conditions: Arg vs vehicle-treated Chol animals
Excerpt: To determine if oral arginine supplementation affects monocyte adherence, blood was collected from rabbits fed normal chow (=6) a 1% cholesterol diet (=6), or a 1% cholesterol diet supplemented with L-arginine (=6), as described above. Mononuclear cells were purified from blood by Ficoll-paque density gradient centrifugation. In these preliminary studies, adhesion was examined of blood leukocytes to a transformed endothelial cell line, bEnd3 (mouse brain-derived polyoma middle T antigen transformed endothelial cells). The Bend3 cells display the morphology of endothelial cells, and like human endothelial cells are capable of uptake of acetylated low-density lipoprotein and express adhesion molecules in a cytokine-regulatable fashion. Cultured cells were grown to confluence in 0.5 cm^2 Lab-Tek chamber slides (MilesScientific) and treated with control medium or with LPS (1 mg/ml) or TNFα (25 U/ml) for 18 hours. Cultures were washed with fresh assay buffer, and low, medium, or high concentrations of leukocytes (0.75, 1.5, or 3×10^5 cells/ml, respectively) were added per well. Following a 30-minute incubation on a rocking platform at room temperature to allow binding, the slides were inverted and immersed in buffer containing 2% (v/v) glutaraldehyde, such that non-adherent cells were lost and adherent cells were fixed to the monolayer. […]

[6] = tested on: rabbit aortic endothelium; experiment: Ex vivo binding of WEHI 78/24 monocytoid cells to rabbit aortic endothelium; type: in vivo; conditions: two weeks, L-arginine supplementation
Excerpt: Methods. Animals. Male New Zealand White rabbits were pair fed, receiving one of the following dietary interventions for two weeks: normal rabbit chow (Cont, n=7); rabbit chow enriched with 1% cholesterol (Chol, n=7); or 1% cholesterol chow supplemented with 2.25% L-arginine HCl in the drinking water (Arg, n=7) ad libitum throughout the course of the study. […] One day before sacrifice (after 2 weeks of dietary intervention), animals were lightly sedated and the central ear artery was cannulated for collection of blood samples.
Mononuclear cell culture and isolation. Murine monocytoid cells, WEHI 78/24 cells were grown in Dulbecco's Modified Eagle's Medium supplemented 10% fetal calf serum (vol/vol) and were kept in an atmosphere of 5% CO2/95% air. Prior to binding studies, mononuclear cells were fluorescently labeled with TRITC (3 μg/ml). To confirm the results using WEHI cells, in some studies binding studies were performed in parallel using rabbit mononuclear cells. Mononuclear cells were isolated from fresh whole blood of Control rabbits before sacrifice.
Preparation of aortic endothelium and binding assay. […]
After 10 minutes the HBSS medium was replaced by binding medium containing WEHI cells. […] The aortic segments were then removed and placed on a glass slide, and adherent cells counted under epifluorescent microscopy from at least 30 sites on each segment.

Compound: N=C(N)NCCC[C@H](N)C(=O)O [L-arginine]
- cGMP content in aggregated platelets ([1]; arginine-treated animals): two-fold greater
- reduction of platelet aggregation ([1]; platelets from Arg animals, adenosine diphosphate): 50%
- complications or side-effects of the infusion ([2]; 30 g i.v. over 15 minutes): no complications or side-effects
- Epicardial coronary vasoconstriction caused by acetylcholine ([2]; acetylcholine 10^−4 mol/L, after L-arginine 30 g i.v. over 15 minutes): −2.8%
- increase in coronary blood flow to acetylcholine ([2]; after L-arginine 30 g i.v.): significantly enhanced; also recorded: improved
- augmentation of the vasodilation to methacholine chloride ([3]; hypercholesterolemic subjects, intravenous over 30 minutes): 25%
- complications or side-effects of the infusions ([3]; intravenous): no complications or side-effects
- vasodilation during methacholine chloride ([3]; normal subjects, intravenous over 30 minutes): did not potentiate
- plaque area of total surface of thoracic aorta ([4]; 23 weeks, 3 of 7 ARG animals with persistent improvement): 5.4%
- generation of vascular NO ([4]; ARG animals): increased generation
- generation of vascular superoxide anion ([4]; ARG animals): reduced generation
- plaque area ([4]; ARG animals at 14 and 18 weeks): reduction
- endothelium-dependent relaxation ([4]; ARG animals, 14 and 18 weeks): improved
- Lesion surface area of thoracic aortae [4]: significantly reduced
- Lesion surface area of thoracic aortae ([4]; listed as arginine): reduced
- adherence of monocytes to bEnd3 cells [5]: much less adherent
- increased WEHI cell binding to aortic endothelium of hypercholesterolemic animals [6]: significantly attenuated
